# Results published in US6362369B1, “Phthalic acid diamide derivatives fluorine-containing aniline compounds as starting material, agricultural and horticultural insecticides, and a method for application of the insecticides” (Nihon Nohyaku Co., Ltd., priority 1997, dated 2002).
# Experiments:
# Type in all cases: in vivo
# [1] = test system: rice leafroller (Cnaphalocrocis medinalis); test: Insecticidal effect on rice leafroller (Test Example 3); settings: 500 ppm, 25° C., humidity 70%; for Insecticidal effect, Test Example 3: rice lamina immersed; for Insecticidal effect, Test Example 3 / Insecticidal effect on rice leafroller (Test Example 3), judged grade: four days after inoculation; for Insecticidal effect (Test Example 3), judged from mortality / Insecticidal effect on rice leafroller (Test Example 3), judged grade: rice lamina dip; for Insecticidal effect (Test Example 3), judged from mortality: 4 days after inoculation; for Insecticidal effect on rice leafroller (Test Example 3), judged grade: third-instar larvae
# How it was run: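 Insecticidal effect is judged by a predefined criterion from dead/alive counts four days after infesting air-dried lamina with third-instar larvae, kept on moistened filter paper at 25° C, 70% humidity.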
# [2] = test system: diamondback moth (Plutella xylostella); test: Insecticidal effect on diamondback moth (Test Example 1); settings: for Insecticidal effect, Test Example 1 / Insecticidal effect (Test Example 1), judged from mortality: diamondback moth; for Insecticidal effect (Test Example 1), judged from mortality: judged by the criterion of Test Example 1; for Insecticidal effect on diamondback moth (Test Example 1), judged grade: mortality judged according to the criterion shown in Test Example 1
# How it was run: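 Oviposition by adults on Chinese cabbage seedling; immersion; air-dry; 25° C room. Count of hatched larvae at day 6 post-immersion → mortality → effect graded by criterion. Triplicate, 10 insects/group.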
# [3] = test system: common cutworm (Spodoptera Litura); test: Insecticidal effect on common cutworm (Test Example 2); settings: 500 ppm, 25° C.; for Insecticidal effect, Test Example 2: cabbage leaf immersed; for Insecticidal effect, Test Example 2 / Insecticidal effect on common cutworm (Test Example 2), judged grade: eight days after inoculation; for Insecticidal effect (Test Example 2), judged from mortality / Insecticidal effect on common cutworm (Test Example 2), judged grade: cabbage leaf dip; for Insecticidal effect (Test Example 2), judged from mortality: 8 days after inoculation; for Insecticidal effect on common cutworm (Test Example 2), judged grade: second-instar larvae
# How it was run: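 2nd-instar larvae on air-dried treatment, closed dish, 25° C; dead/alive counted at day 8. Mortality calculated, graded by criterion. 3 × 10 insects.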
# [4] = third-instar larvae of rice leafroller
# [5] = judged by the mortality criterion of Test Example 1
# [6] = second-instar larvae of common cutworm
# [7] = rice leafroller third-instar larvae
# [8] = mortality judged by criterion of Test Example 1
# [9] = common cutworm second-instar larvae
structure (smiles),measurement,setting,value
Cc1cc(Oc2ncc(C(F)(F)F)cc2Cl)ccc1NC(=O)c1ccccc1C(=O)NC(C)C [compound 79],"Insecticidal effect, Test Example 3",[1]; [4],D (79-50)
same,"Insecticidal effect, Test Example 1",[2]; [5],A (100)
same,"Insecticidal effect, Test Example 2",[3]; [6],A (100)
Cc1cc(OC(F)(F)F)ccc1NC(=O)c1cc(F)c(F)cc1C(=O)NC(C)C [compound 1287],"Insecticidal effect, Test Example 3",[1]; [7],A (100)
same,"Insecticidal effect, Test Example 1",[2]; [8],A (100)
same,"Insecticidal effect, Test Example 2",[3]; [9],A (100)
CC(C)(C)NC(=O)c1c(I)cccc1C(=O)Nc1cc2c(cc1Cl)OC(F)(F)O2 [compound 1624],"Insecticidal effect (Test Example 3), judged from mortality",[1]; [4],A (100)
same,"Insecticidal effect (Test Example 1), judged from mortality",[2],A (100)
same,"Insecticidal effect (Test Example 2), judged from mortality",[3]; [6],D (79-50)
CC(C)NC(=O)c1c(F)cccc1C(=O)Nc1ccc(OC(F)(F)C(F)OC(F)(F)C(F)(F)C(F)(F)F)cc1 (stereo not drawn) [compound 476],"Insecticidal effect on rice leafroller (Test Example 3), judged grade",[1],A (100)
same,"Insecticidal effect on diamondback moth (Test Example 1), judged grade",[2],A (100)
same,"Insecticidal effect on common cutworm (Test Example 2), judged grade",[3],A (100)
Cc1cc(OC(F)F)c(Cl)cc1NC(=O)c1cccc(F)c1C(=O)NC(C)C [compound 517],"Insecticidal effect on rice leafroller (Test Example 3), judged grade",[1],A (100)
same,"Insecticidal effect on diamondback moth (Test Example 1), judged grade",[2],A (100)
same,"Insecticidal effect on common cutworm (Test Example 2), judged grade",[3],A (100)
Cc1cc(C(F)(F)C(F)(F)F)ccc1NC(=O)c1cccc(Cl)c1C(=O)NC(C)(C)C#Cc1ccc(OC(F)(F)F)cc1 [compound 1633],"Insecticidal effect (Test Example 3), judged from mortality",[1]; [4],A (100)
same,"Insecticidal effect (Test Example 1), judged from mortality",[2],A (100)
same,"Insecticidal effect (Test Example 2), judged from mortality",[3]; [6],A (100)
CCCNC(=O)c1c(I)cccc1C(=O)Nc1ccc(C(F)(C(F)(F)F)C(F)(F)F)cc1C [compound 1075],"Insecticidal effect, Test Example 3",[1]; [7],A (100)
same,"Insecticidal effect, Test Example 1",[2]; [8],A (100)
same,"Insecticidal effect, Test Example 2",[3]; [9],A (100)
CC(C)(C)NC(=O)c1c(Cl)cccc1C(=O)Nc1ccc(C(F)(F)C(F)(F)C(F)(F)F)cc1F [compound 1496],"Insecticidal effect (Test Example 3), judged from mortality",[1]; [4],A (100)
same,"Insecticidal effect (Test Example 1), judged from mortality",[2],A (100)
same,"Insecticidal effect (Test Example 2), judged from mortality",[3]; [6],A (100)
Cc1cc(C(F)(F)C(F)(F)F)ccc1NC(=O)c1cccc(Br)c1C(=O)NC(C)C [compound 278],"Insecticidal effect, Test Example 3",[1]; [4],A (100)
same,"Insecticidal effect, Test Example 1",[2]; [5],A (100)
same,"Insecticidal effect, Test Example 2",[3]; [6],A (100)
Cc1cc(C(F)(F)C(F)(F)F)ccc1NC(=O)c1cccc(I)c1C(=O)NCC(F)(F)F [compound 1040],"Insecticidal effect, Test Example 3",[1]; [7],A (100)
same,"Insecticidal effect, Test Example 1",[2]; [8],A (100)
same,"Insecticidal effect, Test Example 2",[3]; [9],A (100)
Cc1cc(Cl)ccc1NC(=O)c1cccc(F)c1C(=O)NC(C)C [compound 490],"Insecticidal effect on rice leafroller (Test Example 3), judged grade",[1],A (100)
same,"Insecticidal effect on diamondback moth (Test Example 1), judged grade",[2],A (100)
same,"Insecticidal effect on common cutworm (Test Example 2), judged grade",[3],A (100)
Cc1cc(OC(F)(F)C(F)(Br)C(F)(F)F)ccc1NC(=O)c1c(I)cccc1C(=O)NC(C)C (stereo not drawn) [compound 446],"Insecticidal effect on rice leafroller (Test Example 3), judged grade",[1],A (100)
same,"Insecticidal effect on diamondback moth (Test Example 1), judged grade",[2],A (100)
same,"Insecticidal effect on common cutworm (Test Example 2), judged grade",[3],A (100)
CCc1cc(Cl)ccc1NC(=O)c1cccc([N+](=O)[O-])c1C(=O)NC(C)C [compound 667],"Insecticidal effect on rice leafroller (Test Example 3), judged grade",[1],A (100)
same,"Insecticidal effect on diamondback moth (Test Example 1), judged grade",[2],A (100)
same,"Insecticidal effect on common cutworm (Test Example 2), judged grade",[3],A (100)
CC(C)NC(=O)c1c(I)cccc1C(=O)Nc1cc2c(cc1Cl)OC(F)(F)O2 [compound 1622],"Insecticidal effect (Test Example 3), judged from mortality",[1]; [4],A (100)
same,"Insecticidal effect (Test Example 1), judged from mortality",[2],A (100)
same,"Insecticidal effect (Test Example 2), judged from mortality",[3]; [6],A (100)
CC(C)NC(=O)c1c(I)cccc1C(=O)Nc1ccc(SC(F)F)cc1 [compound 354],"Insecticidal effect, Test Example 3",[1]; [4],A (100)
same,"Insecticidal effect, Test Example 1",[2]; [5],A (100)
same,"Insecticidal effect, Test Example 2",[3]; [6],A (100)
CCNC(=O)c1c(Cl)cccc1C(=O)Nc1ccc(C(F)(F)C(F)(F)F)cc1Cl [compound 1489],"Insecticidal effect (Test Example 3), judged from mortality",[1]; [4],A (100)
same,"Insecticidal effect (Test Example 1), judged from mortality",[2],A (100)
same,"Insecticidal effect (Test Example 2), judged from mortality",[3]; [6],A (100)
Cc1cc(Cl)ccc1NC(=O)c1ccc(F)cc1C(=O)NC(C)C [compound 529],"Insecticidal effect on rice leafroller (Test Example 3), judged grade",[1],A (100)
same,"Insecticidal effect on diamondback moth (Test Example 1), judged grade",[2],A (100)
same,"Insecticidal effect on common cutworm (Test Example 2), judged grade",[3],D (79-50)
Cc1cc(C(F)(F)C(F)(F)F)ccc1NC(=O)c1cccc(I)c1C(=O)N(C)C(C)C [compound 1042],"Insecticidal effect, Test Example 3",[1]; [7],A (100)
same,"Insecticidal effect, Test Example 1",[2]; [8],A (100)
same,"Insecticidal effect, Test Example 2",[3]; [9],A (100)
